Measured values: PubChem BioAssay AID504422 (Sanford-Burnham Center for Chemical Genomics, 2011)
Calls of active or inactive are those of the source. How the calls were made is not given here.

Tested on: human hepatocytes, lipid droplet formation imaging
Experiment: blockers of lipid droplet accumulation in hepatocytes – imaging, human hepatocytes, SAR follow-up (AID 504422)

CCOc1ccc(CCNC(=O)c2cc3ccsc3n2C)cc1OCC
IC50: > 10 µM (inactive)

O=C(NCCc1ccc2c(c1)OCO2)c1cc2sccc2[nH]1
IC50: > 10 µM (inactive)

CCOc1ccc(CCNC(=O)COc2cc(=O)n(C)c3ccccc23)cc1OCC
IC50: > 10 µM (inactive)

CCOc1ccc(CCNC(=O)c2cc3sccc3[nH]2)cc1OCC
IC50: > 10 µM (inactive)

CCOc1ccc(CCNC(=O)c2cc3sccc3n2CC)cc1OC
IC50: > 10 µM (inactive)

CCOc1ccc(CCNC(=O)CCC(=O)N2CCSc3ccccc32)cc1OCC
IC50: > 10 µM (inactive)

COc1ccc(CNC(=O)CSc2cc(=O)n(C)c3ccccc23)cc1OC
IC50: > 10 µM (inactive)

CCOc1ccc(CCNC(=O)CCC(=O)N2CCOc3ccccc32)cc1OCC
IC50: > 10 µM (inactive)

CCOc1ccc(CCNC(=O)CCC(=O)N2CCOc3ccc(C)cc32)cc1OCC
IC50: > 10 µM (inactive)

CCOc1ccc(CCNC(=O)Cn2ncn3nc(-c4ccc(OC)cc4)cc3c2=O)cc1OCC
IC50: > 10 µM (inactive)

CCOc1cc(CCNC(=O)c2cc3sccc3n2CC)ccc1OC
IC50: > 10 µM (inactive)

COc1ccc(CNC(=O)c2cc(-c3ccccc3)c(N3CCOCC3)s2)cc1OC
IC50: > 10 µM (inactive)

COc1ccc(CCNC(=O)CSc2cc(=O)n(C)c3ccccc23)cc1OC
IC50: > 10 µM (inactive)

CCOc1ccc(CCNC(=O)CSc2cc(=O)n(C)c3cc(Cl)ccc23)cc1OCC
IC50: > 10 µM (inactive)

COc1ccc(CCNC(=O)COC(=O)c2cc(OC)c(OC)cc2OC)cc1OC
IC50: > 10 µM (inactive)

COc1ccc(CCNC(=O)c2cc(-c3ccccc3)c(N3CCOCC3)s2)c(OC)c1OC
IC50: > 10 µM (inactive)

COc1ccc(CCNC(=O)Cn2cccc2C(=O)c2ccccc2C)cc1OC
IC50: > 10 µM (inactive)

O=C(NCCc1ccc2c(c1)OCO2)c1ccc(N2CCOCC2)s1
IC50: > 10 µM (inactive)

CCn1c(C(=O)NCc2ccc(OC)c(OC)c2)cc2ccsc21
IC50: > 10 µM (inactive)

CCOc1ccc(CCNC(=O)CN2C(=O)c3cccnc3Oc3ccc(C)cc32)cc1OCC
IC50: > 10 µM (inactive)

CCOc1ccc(CCNC(=O)c2cc3ccsc3n2CC)cc1OCC
IC50: > 10 µM (inactive)

COc1cc(CNC(=O)c2cc3ccsc3n2C)cc(OC)c1OC
IC50: > 10 µM (inactive)

O=C(NCCc1ccc2c(c1)OCO2)c1cc(-c2ccccc2)c(N2CCOCC2)s1
IC50: > 10 µM (inactive)

Cn1c(C(=O)NCc2ccc3c(c2)OCO3)cc2ccsc21
IC50: > 10 µM (inactive)

CCOc1ccc(CCNC(=O)c2cc3sccc3n2C)cc1OCC
IC50: > 10 µM (inactive)

COc1ccc(NC(=O)c2cc3ccsc3n2C)cc1OC
IC50: > 10 µM (inactive)

CCn1c(C(=O)NCc2cc(OC)c(OC)c(OC)c2)cc2ccsc21
IC50: > 10 µM (inactive)

CCOc1ccc(CCNC(=O)c2cc(-c3ccccc3)c(N3CCOCC3)s2)cc1OC
IC50: > 10 µM (inactive)

CCOc1ccc(CCNC(=O)COC(=O)c2ccc(OC)c(OC)c2OC)cc1OCC
IC50: > 10 µM (inactive)

CCOc1ccc(CCNC(=O)c2ccc(N3CCOCC3)s2)cc1OCC
IC50: > 10 µM (inactive)

CCOc1ccc(CCNC(=O)c2cc3sc(Cl)cc3n2C)cc1OCC
IC50: > 10 µM (inactive)

CCOc1ccc(CCNC(=O)C2CC=CCC2C(=O)OC(C)C)cc1OCC (stereo not drawn)
IC50: > 10 µM (inactive)

CCOc1ccc(CCNC(=O)CN2CCN(Cc3ccccc3C)C2=O)cc1OCC
IC50: > 10 µM (inactive)

CCOc1ccc(CCNC(=O)Cn2cccc2C(=O)c2ccccc2)cc1OCC
IC50: > 10 µM (inactive)

CCOc1ccc(CCNC(=O)CSc2cc(=O)n(CC)c3ccccc23)cc1OCC
IC50: > 10 µM (inactive)

COc1ccc(CNC(=O)c2ccc(N3CCOCC3)s2)cc1OC
IC50: > 10 µM (inactive)

CCn1c(C(=O)NCc2cc(OC)c(OC)c(OC)c2)cc2sccc21
IC50: > 10 µM (inactive)

Cn1c(C(=O)NCCc2ccc3c(c2)OCO3)cc2ccccc21
IC50: > 10 µM (inactive)

CCn1c(C(=O)NCc2ccc3c(c2)OCO3)cc2sccc21
IC50: > 10 µM (inactive)

CCn1c(C(=O)NCCc2ccc(OC)c(OC)c2)cc2ccsc21
IC50: > 10 µM (inactive)

CCOc1ccc(CCNC(=O)CCOc2cc(C)ccc2C)cc1OCC
IC50: > 10 µM (inactive)

CCOc1ccc(CCNC(=O)COC(=O)c2cc(OC)c(OC)c(OC)c2)cc1OCC
IC50: > 10 µM (inactive)

CCn1c(C(=O)Nc2ccc3c(c2)OCO3)cc2ccsc21
IC50: > 10 µM (inactive)

COc1ccc(CCNC(=O)c2cc3sc(Cl)cc3n2C)cc1OC
IC50: > 10 µM (inactive)

CCOc1cc(CCNC(=O)c2cc(-c3ccccc3)c(N3CCOCC3)s2)ccc1OC
IC50: > 10 µM (inactive)

CCOc1ccc(CCNC(=O)c2nnc(Cc3ccc(F)cc3)o2)cc1OCC
IC50: > 10 µM (inactive)

CCn1c(C(=O)NCCc2ccc(OC)c(OC)c2)cc2sc(Cl)cc21
IC50: > 10 µM (inactive)

CCOc1ccc(CCNC(=O)Cn2cccc2C(=O)c2ccccc2C)cc1OCC
IC50: > 10 µM (inactive)

CCOc1ccc(CCNC(=O)CCc2nc(-c3ccc(OC)cc3)no2)cc1OCC
IC50: > 10 µM (inactive)

CCOc1ccc(CCNC(=O)CSc2cc(=O)n(C)c3ccccc23)cc1OC
IC50: > 10 µM (inactive)

CCOc1cc(CCNC(=O)CSc2cc(=O)n(C)c3ccccc23)ccc1OC
IC50: > 10 µM (inactive)

CCOc1ccc(CCNC(=O)CCc2nnc3ccc(N4CCCC4)nn23)cc1OCC
IC50: > 10 µM (inactive)

COc1ccc(CNC(=O)c2cc3ccsc3n2C)cc1OC
IC50: > 10 µM (inactive)

Cn1c(C(=O)Nc2ccc3c(c2)OCO3)cc2ccsc21
IC50: > 10 µM (inactive)

Cn1c(=O)cc(SCC(=O)NCc2ccc3c(c2)OCO3)c2ccccc21
IC50: > 10 µM (inactive)

CCOc1cc(CCNC(=O)c2cc3ccccc3n2C)ccc1OC
IC50: > 10 µM (inactive)

CCOc1ccc(CCNC(=O)c2cc3ccsc3n2CC)cc1OC
IC50: > 10 µM (inactive)

CCOc1ccc(CCNC(=O)c2cc(-c3ccccc3)c(N3CCOCC3)s2)cc1OCC
IC50: > 10 µM (inactive)

CCn1c(C(=O)Nc2ccc(OC)c(OC)c2)cc2sccc21
IC50: > 10 µM (inactive)

CCn1c(C(=O)Nc2ccc3c(c2)OCO3)cc2sccc21
IC50: > 10 µM (inactive)

CCOc1cc(CCNC(=O)c2ccc(N3CCOCC3)s2)ccc1OC
IC50: > 10 µM (inactive)

CCOc1ccc(CCNC(=O)c2cc3sccc3n2CC)cc1OCC
IC50: > 10 µM (inactive)

Cn1c(=O)cc(SCC(=O)Nc2ccc3c(c2)OCO3)c2ccccc21
IC50: > 10 µM (inactive)

CCOc1cc(CCNC(=O)c2cc3sccc3[nH]2)ccc1OC
IC50: > 10 µM (inactive)

Cn1c(=O)cc(SCC(=O)NCCc2ccc3c(c2)OCO3)c2ccccc21
IC50: > 10 µM (inactive)

CCOc1ccc(CCNC(=O)COC(=O)c2cc(OC)cc(OC)c2)cc1OCC
IC50: > 10 µM (inactive)

CCOc1ccc(CCNC(=O)c2cc3ccsc3n2C)cc1OC
IC50: > 10 µM (inactive)

CCOc1cc(CCNC(=O)COc2cc(=O)n(C)c3ccccc23)ccc1OC
IC50: > 10 µM (inactive)

COc1cc(CNC(=O)CSc2cc(=O)n(C)c3ccccc23)cc(OC)c1OC
IC50: > 10 µM (inactive)

COc1ccc(CCNC(=O)c2cc3sccc3n2C)cc1OC
IC50: > 10 µM (inactive)

COc1ccc(CCNC(=O)c2cc3ccccc3n2C)cc1OC
IC50: > 10 µM (inactive)

CCOc1ccc(CCNC(=O)Cn2nc(C)c3c(C)n(-c4ccccc4)nc3c2=O)cc1OCC
IC50: > 10 µM (inactive)

CCn1c(C(=O)Nc2ccc(OC)c(OC)c2)cc2ccsc21
IC50: > 10 µM (inactive)

CCOc1cc(CCNC(=O)c2cc3ccsc3n2C)ccc1OC
IC50: > 10 µM (inactive)

CCOc1ccc(CCNC(=O)c2cc3ccccc3n2C)cc1OC
IC50: > 10 µM (inactive)

CCOc1ccc(CCNC(=O)CSc2cc(=O)n(C)c3ccccc23)cc1OCC
IC50: > 10 µM (inactive)

COc1ccc(CCNC(=O)c2cc(-c3ccccc3)c(N3CCOCC3)s2)cc1OC
IC50: > 10 µM (inactive)

CCOc1ccc(CCNC(=O)CCc2nnc3ccc(N4CCCCC4)nn23)cc1OCC
IC50: > 10 µM (inactive)
